# Entries after “also recorded” stand apart in the source; their conditions may differ.
# Tests used:
# Glu-tubulin = assay: Western blotting of modified tubulin isoforms in attached or suspended cells; assay type: cell-based, mouse; details: for cellular levels of Glu-tubulin: EpH4-Bcl2, attached or detached, LA 5 μM
# Description: EpH4-Bcl2 cells were grown attached to tissue culture dishes or suspended over agarose for the indicated times in either the absence or presence of LA (5 μM). In FIG. 5A, cell lysates were immunoblotted to detect levels of modified tubulin isoforms in the cell populations. In FIG. 5B, modified α-tubulin isoforms were normalized to total α-tubulin and then compared relative to the levels in attached cells at time zero. Bars represent the mean+S.E.M. of four independent experiments. […] Differences in Glu-tubulin upon detachment were also statistically-significant when compared to matched controls at time zero or one hour (black asterisks).
# Whole cell lysates were prepared from EpH4 cells that were scraped or suspended in the presence or absence of 5 μM Latrunculin-A. Cells were pelleted at 3000 rpm×5 min and resuspended in lysis buffer (2% SDS, 100 mM Tris-HCl (pH 6.8), 20% Glycerol, 20 mM DTT, 1 mM phenylmethylsulfonyl fluoride, 1% protease inhibitor cocktail (Sigma, P2714)), and then immediately boiled for 10 min. Protein concentration was measured using a Lowry based assay (Bio-Rad, Hercules, Calif.). The amount of 17.5 μg of protein from each sample was separated by SDS-PAGE on 10% polyacrylamide gels and then transferred to Immuno-Blot PVDF membranes (Bio-Rad, Hercules, Calif.). The membrane was blocked in 2% milk in TBS with 0.1% Tween for 1 hr at room temperature followed by an overnight incubation at 4° C. in monoclonal α-tubulin (1:1000), tyrosinated tubulin (1:1000), acetylated tubulin (1:1000), and polyclonal detyrosinated tubulin (1:1000) in 1% milk in TBST. Secondary antibodies to IgG conjugated to horseradish peroxidase were used (1:5000; GE Healthcare, Piscataway, N.J.) and visualized using ECL chemiluminescent detection kit.
# Immediately following detachment, levels of Glu-tubulin increase and remain elevated for at least 2 hours. […] The increased length and number of protrusions in response to LA may therefore reflect a decrease in an actin-dependent counteracting force, rather than a direct induction of protrusions.
# MCF10A cells = assay: Protrusions in suspended cells treated with cytoskeletal inhibitors (MCF10A); assay type: cell-based, human; parameters: protrusions counted with phase-contrast microscopy: dose or concentration left out as unconfirmed
# Description: In FIG. 2A, after 15 minutes of suspension, protrusions in EpH4 and MCF10A cells are quite small (Control, white arrows). […] In FIG. 2B, populations of live, suspended cells were scored blindly for two or more protrusions longer than the cell radius. Each bar represents the mean+S.D. for three experiments in which at least 100 single cells were counted.
# In order to initially characterize the cytoskeletal mechanism underlying these protrusions, suspended cells were treated with inhibitors of actin and tubulin polymerization (FIG. 2). After 15 minutes of suspension, the protrusions in untreated EpH4 or MCF10A cells remain fairly short (FIG. 2, white arrows). These early protrusions can often be difficult to detect with phase-contrast microscopy, due to interfering light refraction from the plasma membrane. […] Protrusions were more easily visible with immunofluorescence than phase contrast microscopy (FIG. 3, white arrows). Although actin filament staining was generally low along the length of the protrusion, dense points of actin were often found at the end of protrusions (FIG. 3, arrowheads).
# The nontumorigenic human mammary epithelial cell line (MCF10A) or the indicated human breast tumor cell lines were grown in suspension for 30-60 minutes, and protrusions were counted in random fields with phase-contrast microscopy. Values represent the mean±S.D. of three experiments in which at least 100 cells were counted. […] This effect was most apparent in the highly metastatic but exemplary Bt-474 and MDA-MB-231 cells (pictured, black arrows). The exemplary MCF10A cells show far fewer and shorter protrusions at the same time point (pictured, white arrows). Such protrusions are not observed in attached cells.
# EpH4-Bcl2 cells = assay: Cell-cell attachment assay; assay type: cell-based, mouse; details: EpH4-Bcl2 in 0.3% methylcellulose over agarose, 5 hours; listed as LA
# Description: In FIG. 6A, EpH4-Bcl2 cells were suspended over agarose and treated with inhibitors as above. Following treatment, cells were plated into 0.3% methylcellulose media over agarose and the rate of cell-cell attachment was followed by Hoescht DNA staining. […] Similar results were found in three independent experiments. In FIG. 6B, EpH4-Bcl2 cells suspended over agarose for one hour in DMEM or DMEM containing LA (5 μM), Colchicine (1 μM), or the combination. Reattachment of these cells to either uncoated tissue culture plates or those pre-coated with laminin was followed by XTT cell viability assay. Values represent mean+S.D. of raw XTT values of three separate experiments.
# B19 cells were seeded onto 10 cm dishes until 80% confluency. The media was aspirated and cells were incubated in fresh growth media containing Hoescht 33342 (1:5000) for 30 min at 37° C. to label all attached cells. The cells were washed twice in PBS, detached by trypsinization, and an equivalent number of cells were resuspended in serum-free media containing 0.3% methylcellulose with either 5 μM Latrunculin A, 100 μM Colchicine, 1 μg/ml vinblastine, or 5 μg/ml nocodazole and plated over 2% agarose-coated 24-well plates. The progression of cell-cell adhesion over time was visualized by the EpiChemi3 Imaging System (UVP, Inc.; Upland, Calif.) using an excitation wavelength of 365 nm and a blue band pass filter. Images were obtained with an attached Hamamatsu CCD camera (Hamamatsu Photonics, Hamamatsu City, Japan) and analyzed with UVP Labworks Image Acquisition and Analysis Software v. 4.6.
# To determine if these microtubule protrusions influence the ability of cells to form attachments, the cells were treated with inhibitors of actin or tubulin polymerization and assessed both cell-cell and cell-substratum attachment (FIG. 6). […] Induction of such nonspecific attachment activity in detached mammary epithelial cells could promote tumor cell dissemination, particularly when apoptotic resistance allows this response to continue for extended periods.
smiles,measurement,setting,value
C/C1=C/C(=O)O[C@@H]2C[C@@H](CC[C@H](C)/C=C\C=C\CC1)O[C@@](O)([C@@H]1CSC(=O)N1)C2 [Latrunculin-A],"total cellular levels of α-tubulin, tyrosinated or acetylated tubulin","Glu-tubulin; EpH4-Bcl2, LA treatment",remain unaffected
same,cellular levels of Glu-tubulin,Glu-tubulin,did not increase
same,cellular levels of Glu-tubulin,Glu-tubulin; listed as LA,not specifically increased; also recorded: does not significantly increase cellular levels of Glu-tubulin
same,protrusions counted with phase-contrast microscopy,"MCF10A cells; MCF10A in suspension 30-60 minutes, LA",increases protrusions
same,protrusions,"MCF10A cells; MCF10A, 15 minutes of suspension, Latrunculin-A 5 μM, Colchicine 1 μM, listed as latrunculin-A",significantly enhanced both the number and length of protrusions
same,cell-cell attachment (clustering),EpH4-Bcl2 cells,did speed the rate at which cells bound to each other; also recorded: cluster similarly or even more tightly compared to control cells

# Reference: patent publication US8193238B2, “Inhibition of microtubule protrusion in cancer cells” (University of Maryland, Baltimore, priority 2006, dated 2012)
